Values of other authors, collected in US20230330115A1 (priority 2022, published 2023).
Entries after “also recorded” stand apart in the source; their conditions may differ.

How the values were obtained:
CB2 [1] = target: T1, CB2 (Homo sapiens, UniProt P34972); conditions: read-out: Functional Activity CB2
CB1 = CB1 (Homo sapiens, UniProt P21554); conditions: read-out: Functional Activity CB1
CB2 [2] = target: T1, CB2; conditions: read-out: Binding Affinity CB2
CB1 receptor = conditions: read-out: Binding Affinity CB1
rodents = rodents administered THCB

CB1, sequence (P21554 whole entry): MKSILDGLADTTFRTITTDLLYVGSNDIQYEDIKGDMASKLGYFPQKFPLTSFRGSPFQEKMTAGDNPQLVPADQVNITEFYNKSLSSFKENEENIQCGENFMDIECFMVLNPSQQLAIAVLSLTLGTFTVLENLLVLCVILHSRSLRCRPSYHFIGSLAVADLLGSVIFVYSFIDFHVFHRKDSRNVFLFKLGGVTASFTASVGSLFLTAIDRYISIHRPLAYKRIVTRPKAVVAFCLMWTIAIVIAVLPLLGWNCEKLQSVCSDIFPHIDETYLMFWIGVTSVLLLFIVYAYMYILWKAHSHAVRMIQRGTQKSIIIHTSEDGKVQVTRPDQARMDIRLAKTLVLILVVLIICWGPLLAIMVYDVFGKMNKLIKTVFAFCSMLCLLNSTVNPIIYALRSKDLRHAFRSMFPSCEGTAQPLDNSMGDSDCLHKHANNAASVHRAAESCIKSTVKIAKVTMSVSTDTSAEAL
T1 sequence (P34972 whole entry): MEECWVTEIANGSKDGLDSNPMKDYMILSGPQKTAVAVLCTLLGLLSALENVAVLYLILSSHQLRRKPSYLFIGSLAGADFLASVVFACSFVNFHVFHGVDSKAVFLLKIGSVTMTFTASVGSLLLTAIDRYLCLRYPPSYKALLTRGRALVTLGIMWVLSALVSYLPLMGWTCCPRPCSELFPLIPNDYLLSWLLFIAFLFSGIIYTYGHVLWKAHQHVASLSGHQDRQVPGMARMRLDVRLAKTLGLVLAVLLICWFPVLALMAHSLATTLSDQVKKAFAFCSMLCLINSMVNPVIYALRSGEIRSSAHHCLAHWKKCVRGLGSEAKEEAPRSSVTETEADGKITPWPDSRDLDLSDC

Row | Molecule | EC50 (CB2 [1]) [µM] | EC50 (CB1) [µM] | Ki (CB2 [2]) [µM] | Ki (CB1 receptor) [µM] | also measured
1 | CCCCCc1cc(O)c2c(c1)OC(C)(C)c1ccc(C)cc1-2 [CBN, Cannabinol] | 0.289 ± 0.038 | 0.307 ± 0.039 | 0.168 ± 0.032 | 0.368 ± 0.121 | –
2 | CCCCCc1cc(O)c(C/C=C(\C)CCC=C(C)C)c(O)c1C(=O)O [CBGA, Cannabigerolic acid] | 0.118 ± 0.027 | 0.182 ± 0.032 | > 10 | 4.53 | –
3 | CCCCc1cc(O)c2c(c1)OC(C)(C)[C@@H]1CCC(C)=C[C@@H]21 (relative stereo) [THCB, (—)trans-delta-9-tetrahydrocannabibutol] | – | – | – | 0.015 | catalepsy, analgesia, hypolocomotion (mice; first phase (10 mg/kg)): no significant catalepsy, analgesia, or hypolocomotion; also recorded: no significant catalepsy, analgesia, or hypo locomotion; hypothermic effect (decrease) (mice; first phase (10 mg/kg)): less than 0.5 °C; activity type corroborated by Tetrad Test (mice; mice): CB1 partial agonistic activity; catalepsy and analgesia (mice; second phase (20 mg/kg)): significant direct effect on catalepsy and analgesia; also recorded: very significant catalepsy and analgesia effect; hypolocomotion (mice; second phase (20 mg/kg)): slight direct effect on hypolocomotion; hypothermic effect (mice; second phase (20 mg/kg)): appears to reverse; also recorded: reversal in the second phase; formalin test outcome (rodents): possible analgesic and anti-inflammatory properties
4 | CCCCCc1cc(O)c(C/C=C(\C)CCC=C(C)C)c(O)c1 [CBG, Cannabigerol] | 1.16 | > 10 | – | 0.44 | –
5 | CCCc1cc(O)c2c(c1)OC(C)(C)[C@@H]1CCC(C)=C[C@@H]21 (single isomer, unassigned) [THCV, (—)trans-delta-9-tetrahydrocannabivarin] | > 10 | > 10 | 0.105 ± 0.021 | 0.022 ± 0.005 | –
6 | CCCCCc1cc2c(c(O)c1C(=O)O)[C@@H]1C=C(C)CC[C@H]1C(C)(C)O2 (relative stereo) [THCA, (—)trans-delta-9-tetrahydrocannabinolic acid] | > 10 | > 10 | 1.65 | 1.29 | –
7 | C=C(C)[C@@H]1CCC(C)=C[C@H]1c1c(O)cc(CCC)cc1O [CBDV, Cannabidivarin] | 0.003 ± 0.008 | > 10 | 3.97 | 0.503 ± 0.058 | –
8 | CCCCCc1cc(O)c2c(c1)OC(C)(C)[C@@H]1CCC(CO)=C[C@@H]21 [11-Hydroxy, 11-OH-delta-9-tetrahydrocannabinol] | – | < 0.2 | – | < 0.2 | –
9 | CCCCCCCc1cc(O)c2c(c1)OC(C)(C)[C@@H]1CCC(C)=C[C@@H]21 (relative stereo) [THCP, (—)trans-delta-9-tetrahydrocannabiphorol] | – | – | – | 0.0012 | hypothermia, dose dependence (mice; 5 mg/Kg vs 10 mg/Kg): does appear to increase at higher doses; potency at CB1 relative to THC (mice; Tetrad Test in mice, even at low doses (5 mg/kg of body weight)): about 30 times; effects in mice (Tetrad Test criteria) (mice; mice): hypomotility, analgesia, catalepsy and decreased rectal temperature; dose dependence of the effects (mice; mice, increasing dose (5 mg/Kg vs 10 mg/Kg)): do not appear to increase as the dose increases
10 | Cannabichromanone D [CBCN D] | 3.95 | 0.008 ± 0.0009 | 2.83 | 7.12 | –
